The subject of one data set is BGC-823. The data set can be described thus: Cytotoxicity against human BGC-823 cells assessed as reduction in cell growth measured after 72 hrs by MTT assay. Type of data set: functional, cell-based. The conditions noted are these: BGC-823, 72 h. On the technique in general: Tetrazolium dyes change colour on reduction, which living cells bring about.
A further data set relates to K562. The data set can be described thus: Antiproliferative activity against human K562 cells assessed as reduction in cell growth incubated for 72 hrs by MTT assay. Type of data set: functional, cell-based. The conditions noted are these: K562, 72 h.
The next data set has as its system HeLa. The data set can be described thus: Cytotoxicity against human HeLa cells assessed as reduction in cell viability measured for 24 hrs by MTT assay. Type of data set: functional, cell-based.
For data set [1], the system named is MCF7. The data set can be described thus: Cytotoxicity against human MCF7 cells assessed as reduction in cell growth measured after 72 hrs by MTT assay. Type of data set: functional, cell-based. The conditions noted are these: MCF7, 72 h.
A further data set concerns HL-60. The data set can be described thus: Antiproliferative activity against human HL-60 cells assessed as reduction in cell growth incubated for 72 hrs by MTT assay. Format: functional, cell-based. The conditions noted are these: HL-60, 72 h.
A further data set concerns DU-145. The data set can be described thus: Cytotoxicity against human DU-145 cells assessed as cell growth inhibition measured after 48 hrs by MTT assay. Type of data set: functional, cell-based. Particulars: DU-145, 48 h.
The test system of the next data set is QG-56. The data set can be described thus: Cytotoxicity against human QG-56 cells assessed as reduction in cell growth incubated for 24 hrs by MTT assay. Type of data set: functional, cell-based. The conditions noted are these: QG-56, 24 h.
Another data set relates to SK-MEL-28. The data set can be described thus: Cytotoxicity against human SK-MEL-28 assessed as inhibition of cell growth incubated for 48 hrs. Format: functional, cell-based. The conditions noted are these: SK-MEL-28, 48 h.
For data set [2], the system named is P388. The data set can be described thus: Cytotoxicity against mouse P388 cells assessed as inhibition of cell growth incubated for 48 hrs. Format: functional, cell-based. Particulars: P388, 48 h.
The subject of data set [3] is HCT-116. The data set can be described thus: Antiproliferative activity against human HCT-116 cells assessed as reduction in cell viability incubated for 24 hrs by MTT assay. Format: functional, cell-based. The conditions noted are these: HCT-116, 24 h.
Data set [4] relates to A549. The data set can be described thus: Cytotoxicity against human A549 assessed as inhibition of cell growth incubated for 48 hrs. Type of data set: functional, cell-based. Particulars: A549, 48 h.
In the next data set the test system is HT-29. The data set can be described thus: Cytotoxicity against human HT-29 assessed as inhibition of cell growth incubated for 48 hrs. Type of data set: functional, cell-based. The conditions noted are these: HT-29, 48 h.
The next data set relates to BC. The data set can be described thus: Cytotoxicity against human BC cells assessed as inhibition of cell growth. Format: functional, cell-based.
Data set [5] concerns U-937. The data set can be described thus: Cytotoxicity against human U-937 cells assessed as reduction in cell viability incubated for 72 hrs by MTT assay. Format: functional, cell-based. Particulars: U-937, 72 h.
Data set [6] has as its system PC-3. The data set can be described thus: Cytotoxicity against human PC-3 cells assessed as reduction in cell viability measured after 72 hrs by MTT assay. Type of data set: functional, cell-based. Particulars: PC-3, 72 h.
The test system of the next data set is L1210. The data set can be described thus: Cytotoxicity against mouse L1210 cells assessed as reduction in cell growth. Type of data set: functional. Particulars: read-out: ED50 (the source's name).
The test system of data set [7] is P388. The data set can be described thus: Cytotoxicity against mouse P388 cells assessed as cell growth inhibition. The conditions noted are these: read-out: ED50 (the source's name). Format: functional.
The nature of data set [8]: Cytotoxicity against mouse FM3A tsFT210 cells assessed as inhibition of cell growth. Type of data set: functional, cell-based.
The subject of data set [9] is PC-3. The data set can be described thus: Cytotoxicity against human PC-3 cells assessed as reduction in cell viability. Format: functional, cell-based.
Data set [10] has as its system U-937. The data set can be described thus: Cytotoxicity against human U-937 cells assessed as reduction in cell viability. Format: functional, cell-based.
The subject of data set [11] is HCT-116. The data set can be described thus: Cytotoxicity against human HCT-116 cells assessed as reduction in cell viability incubated for 48 hrs by Celltiter-Glo assay. Format: functional, cell-based. The conditions noted are these: HCT-116, 48 h. On the technique in general: Cellular ATP, detected with luciferase, serves as a proxy for viable cell number.
Data set [12] in a line: Cytotoxicity against human HaCaT cells incubated for 24 hrs by MTS assay. Format: toxicity, cell-based.
For data set [13], the system named is A549. The data set can be described thus: Cytotoxicity against human A549 cells assessed as reduction in cell viability incubated for 48 hrs by Celltiter-Glo assay. Format: functional, cell-based. The conditions noted are these: A549, 48 h.
The subject of data set [14] is A549. The data set can be described thus: Cytotoxicity against human A549 cells assessed as reduction in cell viability measured after 24 hrs by MTT assay. Format: functional, cell-based. The conditions noted are these: A549, 24 h.
Data set [15] in a line: Cytotoxicity against human BEAS-2B cells incubated for 72 hrs measured by MTT assay. Format: toxicity, cell-based.
A further data set deals with NCI-H23. The data set can be described thus: Cytotoxicity against human NCI-H23 cells assessed as reduction in cell viability incubated for 48 hrs by MTT assay. Type of data set: functional, cell-based. The conditions noted are these: NCI-H23, 48 h.
For another data set, the system named is NCI-H460. The data set can be described thus: Cytotoxicity against human NCI-H460 cells assessed as reduction in cell viability incubated for 48 hrs by MTT assay. Format: functional, cell-based. The conditions noted are these: NCI-H460, 48 h.
The test system of data set [16] is MCF7. The data set can be described thus: Cytotoxicity against human MCF7 cells assessed as reduction in cell viability. Format: functional, cell-based.

SMILES strings stand for the structures. Values after ≈ are worked out from the molar mass of the structure shown.

This note sets out measurements from ChEMBL document CHEMBL5500324, “The potential of marine-derived piperazine alkaloids: Sources, structures and bioactivities” (Eur J Med Chem, 2024).

As usually defined, the IC50 is the midpoint of a concentration-inhibition curve. In the case of `C=CC(C)(C)[C@@]12C[C@H]3C(=O)N[C@@H](Cc4ccc(O)cc4)C(=O)N3[C@@H]1N([C@H]1O[C@]3(C[C@@H]1NC(=O)/C=C/C(C)CC(C)CCCCCC)[C@@H]1O[C@@H]1[C@](O)(CC(C)=O)[C@@H]1O[C@@H]13)c1ccccc12` (some centres not stated), the IC50 in the data set with BGC-823 came to 16.6 µM; with K562, 19.9 µM; in the data set on HeLa, 17.7 µM; with MCF7 [1], 8 µM; in the data set with HL-60, 12.1 µM.

For the compound `COC1=C(C)C(=O)C2=C(C1=O)[C@H]1[C@@H]3CC4=C(C(=O)C(OC)=C(C)C4=O)[C@H](COC(C)=O)N3[C@@H](O)[C@@H](C2)N1C`, the IC50 with DU-145 is 0.00049 µM; in the data set on QG-56, 0.00076 µM; in the data set with SK-MEL-28 it was 0.0125 µg/mL (≈ 0.0237 µM); with P388 [2] it was 0.0125 µg/mL (≈ 0.0237 µM); in the data set with HCT-116 [3], 0.00057 µM; in the data set with A549 [4] it was 0.0125 µg/mL (≈ 0.0237 µM). Also, the 50% inhibitory concentration (IC50) in the data set with HT-29 was 0.0125 µg/mL (≈ 0.0237 µM); in the data set with BC, 0.0025 µM.

Turning to `CS[C@]1(CO)C(=O)N2[C@H]3C(=CC=C[C@@H]3O)C[C@@]2(SC)C(=O)N1C` [BIS(DETHIO)BIS(METHYLTHIO)GLIOTOXIN], the IC50 with U-937 [5] worked out at 0.2 µM; in the data set with PC-3 [6], 0.39 µM.

With `CN1C[C@H](c2c[nH]c3cc(Br)ccc23)NC[C@H]1c1c[nH]c2cc(Br)ccc12`, the EC50 with L1210 amounted to 10 µg/mL (≈ 20.5 µM).

Consider `CS[C@H]1C(=O)N2[C@H]3Nc4ccccc4[C@@]3(c3c[nH]c4ccccc34)[C@H](O)[C@]2(SC)C(=O)N1C` [BIONECTIN C], for which the EC50 in the data set with P388 [7] was determined as 6.5 µg/mL (≈ 13.5 µM).

`CS[C@]1(CO)C(=O)N2C3C(=CC=CC3O)C[C@@]2(SC)C(=O)N1C` (some centres not stated): the figures for the IC50 (in data set [8]; with PC-3 [9]; in the data set with U-937 [10]) were 89.8 µg/mL (≈ 252 µM), 15.9 µM and 0.52 µM, respectively.

Take `CCCCCCCCCC(CC(=O)NCCCN)N1CC(=O)N(O)C(Cc2ccccc2)C1=O` (configuration not stated): the IC50 was determined as 59.9 µM in the data set with HCT-116 [11] and 43.2 µM in the data set with A549 [13]. In addition, the 50% inhibitory concentration (IC50) at 24 h in data set [12] is 50 µM.

As to `COC1=C(C)C(=O)C2=C(C1=O)[C@@H]1[C@@H]3CC4=C(C(=O)C(OC)=C(C)C4=O)[C@H](CO)N3[C@@H](C#N)[C@H](C2)N1C` [JOURNNAMYCIN A], the IC50 stood at 3.1 µM with A549 [14]; 0.029 µM in the data set with DU-145; 0.059 µM in the data set on QG-56; 0.013 µM with HCT-116 [3]; 2.3 µM in the data set with NCI-H23; 8 µM in the data set with NCI-H460. This compound had an IC50 at 72 h in [15] of 14.8 µM.

`CS[C@H]1C(=O)N2[C@H]3Nc4ccccc4[C@@]3(c3c[nH]c4ccccc34)C[C@]2(SC)C(=O)N1C`: the EC50 in the data set on P388 [7] was 20 µg/mL (≈ 43 µM).

For the compound `COc1ccc2c3c([nH]c2c1)[C@H](C=C(C)C)N1C(=O)[C@]2(O)CCCN2C(=O)[C@@]1(O)[C@H]3OC`, in the data set with MCF7 [16], the IC50 was 7.6 µM.

For the compound `C=CC(C)(C)[C@@]12C[C@H]3C(=O)N[C@@H](Cc4ccccc4)C(=O)N3[C@@H]1N([C@H]1O[C@]3(C[C@@H]1NC(=O)/C=C/C(C)CC(C)CCCCCC)[C@@H]1O[C@@H]1[C@](O)(CC(C)=O)[C@@H]1O[C@@H]13)c1ccccc12` (some centres not stated), the IC50 was determined as 8 µM in the data set with BGC-823; 11.4 µM in the data set on K562; 9.5 µM in the data set with HeLa; 5.4 µM with MCF7 [1]; 5.4 µM in the data set with HL-60.
